The results in this text go back to patent US20220213092A1, “BICYCLIC PYRAZOLE BRUTON'S TYROSINE KINASE INHIBITORS” (AbbVie Inc., priority 2020, published 2022).

The experiment deals with T1, BMX (Homo sapiens, UniProt P51813).
T1 sequence (P51813 1-675): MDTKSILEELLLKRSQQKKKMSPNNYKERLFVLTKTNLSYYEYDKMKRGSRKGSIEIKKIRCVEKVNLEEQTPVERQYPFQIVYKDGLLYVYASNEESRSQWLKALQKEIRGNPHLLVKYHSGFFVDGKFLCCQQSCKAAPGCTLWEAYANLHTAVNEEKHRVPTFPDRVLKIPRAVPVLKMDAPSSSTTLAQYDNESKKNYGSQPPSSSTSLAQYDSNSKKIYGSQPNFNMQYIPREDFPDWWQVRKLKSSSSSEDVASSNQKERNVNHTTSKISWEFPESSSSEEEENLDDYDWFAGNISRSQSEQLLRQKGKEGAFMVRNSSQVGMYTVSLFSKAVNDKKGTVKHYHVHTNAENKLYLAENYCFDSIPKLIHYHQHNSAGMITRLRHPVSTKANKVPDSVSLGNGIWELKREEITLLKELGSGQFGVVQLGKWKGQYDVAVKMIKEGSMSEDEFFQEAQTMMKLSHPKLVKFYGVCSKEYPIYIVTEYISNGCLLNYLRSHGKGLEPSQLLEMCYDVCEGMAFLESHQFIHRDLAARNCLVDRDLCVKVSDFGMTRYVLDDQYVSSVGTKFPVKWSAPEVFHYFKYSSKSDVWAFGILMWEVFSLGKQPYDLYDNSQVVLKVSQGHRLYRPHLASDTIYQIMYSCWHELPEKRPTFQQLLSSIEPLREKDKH
The experiment in a line: Other kinase MSA: BMX. The format is biochemical. How it is done:
Kinase activity, unless otherwise indicated, was measured in vitro using an electrophoretic mobility shift assay (MSA). The phosphorylation of a peptide substrate by BTK and other kinases was measured. The kinase reactions were assembled in a total volume of 25 μL per well in 384 well plates. The following was added to each well: compound buffer (or control); enzyme buffer; and substrate buffer, as further described below.
Enzyme and compound/inhibitor were optionally pre-incubated. To each well was added: 8 μL of 2.5×ATP and substrate in 1× Master Buffer (1× Master Buffer as described above). The plate was incubated at room temperature for 3 hours. […] OG488 was Oregon Green dye, which was conjugated to the peptide substrate. […] The kinase activity for the kinases in Table 3 were measured at 3 hours incubation time, except that in the case of MAP2K1 and MAP2K2 assay, pre-activation of ERK was done for 30 min with 6 μM of ATP, and then the detection of activated ERK in the presence of compounds was done after 60 minutes of incubation.
The terminated reactions were analyzed using a 12 channel LABCHIP® 3000 microfluidic detection instrument (available from Caliper Life Sciences, Waltham, Mass.). […] Change in the relative fluorescence intensity of the substrate and product peaks was the parameter measured, reflecting enzyme activity. […]

The term IC50 denotes the concentration needed to halve the response being measured. Higher therefore signals a need for much substance. As to `C=CC(=O)N1CCN([C@@H]2CCNc3c2nn(-c2ccc(Oc4ccccc4)cc2)c3C(N)=O)CC1` [Example 6, (7R)-2-(4-phenoxyphenyl)-7-[4-(prop-2-enoyl)piperazin-1-yl]-4,5,6,7-tetrahydro-2H-pyrazolo[4,3-b]pyridine-3-carboxamide], the IC50 stood at 0.0152 µM.
